{
  "source": "patent US10005767B2",
  "about": "“Compositions and methods for inhibition of the JAK pathway” (Rigel Pharmaceuticals, Inc., priority 2009, dated 2018)",
  "data": [
    {"system": "human primary T-cells, IL-2 stimulated proliferation (JAK-1 and JAK-3 dependent; reported as JAK3 activity)", "assay": "Human primary T-cell proliferation stimulated by IL-2 (Example 3)", "type": "cell-based", "settings": "Homo sapiens, T-cell, tested under conditions described in Example 3 (IL-2 stimulated human primary T-cell proliferation); read-out: ability to inhibit JAK3 activity, IC50 range (Table V)", "summary_of_the_method": "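Peripheral-blood human T-cells pre-activated via TCR/CD28, IL-2-starved overnight, then cultured 72 h at 37 °C with compound in Yssel's medium containing IL-2 (80 U/mL in cell suspension). Proliferation read as viable-cell ATP by CellTiter-Glo luminescence; reduction versus control taken as JAK pathway inhibition.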", "units": {"IC50": "nM"}, "values": [
      {"smiles": "COc1cc(Nc2ncc(C)c(Nc3ccc4oc(=O)[nH]c4c3)n2)cc(C(C)N2CCC2)c1", "note": "(centres unmarked) [Compound I-235, 5-(2-(3-(1-(azetidin-1-yl)ethyl)-5-methoxyphenylamino)-5-methylpyrimidin-4-ylamino)benzo[d]oxazol-2(3H)-one]", "IC50": "< 500"},
      {"smiles": "CNC(C)c1cc(Nc2ncc(C)c(Nc3ccc4oc(=O)[nH]c4c3)n2)cc(OC)c1", "note": "(centres unmarked) [Compound I-236, 5-(2-(3-methoxy-5-(1-(methylamino)ethyl)phenylamino)-5-methylpyrimidin-4-ylamino)benzo[d]oxazol-2(3H)-one]", "IC50": "< 500"},
      {"smiles": "Cc1cc(Nc2ncc(C)c(Nc3ccc4oc(=O)[nH]c4c3)n2)cc(C(F)F)c1", "note": "[Compound I-237, 5-(2-(3-(difluoromethyl)-5-methylphenylamino)-5-methylpyrimidin-4-ylamino)benzo[d]oxazol-2(3H)-one]", "IC50": "< 500"},
      {"smiles": "Cc1cc(CF)cc(Nc2ncc(C)c(Nc3ccc4oc(=O)[nH]c4c3)n2)c1", "note": "[Compound I-238, 5-(2-(3-(fluoromethyl)-5-methylphenylamino)-5-methylpyrimidin-4-ylamino)benzo[d]oxazol-2(3H)-one]", "IC50": "< 500"},
      {"smiles": "Cc1ccc(Nc2ncc(C)c(Nc3ccc4oc(=O)[nH]c4c3)n2)cc1S(C)(=O)=O", "note": "[Compound I-239, 5-(5-methyl-2-(4-methyl-3-(methylsulfonyl)phenylamino)pyrimidin-4-ylamino)benzo[d]oxazol-2(3H)-one]", "IC50": "< 500"},
      {"smiles": "Cc1cnc(Nc2cc(F)cc(N3CCOCC3)c2)nc1Nc1ccc2oc(=O)[nH]c2c1", "note": "[Compound I-240, 5-(2-(3-fluoro-5-morpholinophenylamino)-5-methylpyrimidin-4-ylamino)benzo[d]oxazol-2(3H)-one]", "IC50": "< 500"},
      {"smiles": "Cc1cnc(Nc2cc(F)cc(N3CCN(C)CC3)c2)nc1Nc1ccc2oc(=O)[nH]c2c1", "note": "[Compound I-241, 5-(2-(3-fluoro-5-(4-methylpiperazin-1-yl)phenylamino)-5-methylpyrimidin-4-ylamino)benzo[d]oxazol-2(3H)-one]", "IC50": "< 500"},
      {"smiles": "Cc1cnc(Nc2ccc(F)c(S(C)(=O)=O)c2)nc1Nc1ccc2oc(=O)[nH]c2c1", "note": "[Compound I-242, 5-(2-(4-fluoro-3-(methylsulfonyl)phenylamino)-5-methylpyrimidin-4-ylamino)benzo[d]oxazol-2(3H)-one]", "IC50": "< 500"},
      {"smiles": "Cc1cnc(Nc2cccc(S(N)(=O)=O)c2)nc1Nc1cc(C)c2oc(=O)[nH]c2c1", "note": "[Compound I-243, 3-(5-methyl-4-(7-methyl-2-oxo-2,3-dihydrobenzo[d]oxazol-5-ylamino)pyrimidin-2-ylamino)benzenesulfonamide]", "IC50": "< 500"},
      {"smiles": "Cc1cnc(Nc2cccc(S(C)(=O)=O)c2)nc1Nc1cc(C)c2oc(=O)[nH]c2c1", "note": "[Compound I-244, 7-methyl-5-(5-methyl-2-(3-(methylsulfonyl)phenylamino)pyrimidin-4-ylamino)benzo[d]oxazol-2(3H)-one]", "IC50": "< 500"},
      {"smiles": "Cc1cnc(Nc2ccc(F)c(S(C)(=O)=O)c2)nc1Nc1cc(C)c2oc(=O)[nH]c2c1", "note": "[Compound I-245, 5-(2-(4-fluoro-3-(methylsulfonyl)phenylamino)-5-methylpyrimidin-4-ylamino)-7-methylbenzo[d]oxazol-2(3H)-one]", "IC50": "< 500"},
      {"smiles": "Cc1cnc(Nc2cccc(C(=O)N3CCCC3)c2)nc1Nc1ccc2oc(=O)[nH]c2c1", "note": "[Compound I-246, 5-(5-methyl-2-(3-(pyrrolidine-1-carbonyl)phenylamino)pyrimidin-4-ylamino)benzo[d]oxazol-2(3H)-one]", "IC50": "< 500"},
      {"smiles": "Cc1cnc(Nc2ccc(C(=O)N3CCCC3)cc2)nc1Nc1ccc2oc(=O)[nH]c2c1", "note": "[Compound I-247, 5-(5-methyl-2-(4-(pyrrolidine-1-carbonyl)phenylamino)pyrimidin-4-ylamino)benzo[d]oxazol-2(3H)-one]", "IC50": "< 500"},
      {"smiles": "Cc1cnc(Nc2cccc(S(N)(=O)=O)c2)nc1Nc1cc(F)c2oc(=O)[nH]c2c1", "note": "[Compound I-248, 3-(4-(7-fluoro-2-oxo-2,3-dihydrobenzo[d]oxazol-5-ylamino)-5-methylpyrimidin-2-ylamino)benzenesulfonamide]", "IC50": "< 500"}
    ]}
  ]
}
